Numbered stars: 1 amine (or outer) side, 2 acyl side, 3 side chain; on linkers, the order of the positions; unused ones are H or OH. Bridge positions count the residues as written; N and C are the ends. Square brackets hold non-standard residues; d marks the D form. Peptide text beside a SMILES is read from it. * marks the point of attachment. Pyrazinoyl(5-oxo-4H) = O=C(c1c[nH]c(=O)cn1)*; 1,2,3Thiadiazole5CO(4-Me) = Cc1nnsc1C(=O)*; Nicotinoyl(6-OMe) = COc1ccc(C(=O)*)cn1; 2Thenoyl(5-Cl) = O=C(c1ccc(Cl)s1)*; Phenoxyacetyl = O=C(COc1ccccc1)*; Cysteamide = C(CS[*:3])N[*:1]; X3 = O=C(Cc1c[nH]c2ccccc12)*; Isovaleryl = CC(C)CC(=O)*; 2Furoyl = O=C(c1ccco1)*; Mpa = O=C(O)CCS
Biological target: T1, thrombin (Homo sapiens, UniProt P00734)
T1 construct: consists of two polypeptide chains of 36 (light chain) and 259 amino acid
Assay: Thrombin inhibition screen of crude macrocycle reactions (residual thrombin activity, fluorogenic substrate Z-Gly-Gly-Arg-AMC)
Assay type: biochemical
Settings: 10 µM macrocycle concentration; crude reactions, Library 1a-l; scaffold AA1-AA2-AA3 combined with 1-16 or '-'
How it was run: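 Each crude macrocycle (10 μM) was preincubated 10 min at room temperature with thrombin (2 nM final) in Tris-Cl pH 7.4 containing NaCl, MgCl2, CaCl2, 0.1% BSA, 0.01% Triton X-100 and 0.6% DMSO. Z-Gly-Gly-Arg-AMC (50 μM final) was then added. Inhibition came from fluorescence slopes relative to DMSO-only controls.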

Row | percent residual thrombin activity [%] | SMILES
1 | 106.277 | O=C1CCNC(=O)[C@H](Cc2c[nH]cn2)NC(=O)CCSSCCNC(=O)[C@H](CCCNC(=O)c2c[nH]c(=O)cn2)N1 [H-B2-D2/9]
2 | 112.021 | O=C1CCNC(=O)[C@H](Cc2c[nH]cn2)NC(=O)CCSSCCNC(=O)[C@H](CCCNC(=O)c2c[nH]c(=O)[nH]c2=O)N1 [H-B2-D2/11]
3 | 94.6113 | O=C1CCNC(=O)[C@H](Cc2c[nH]cn2)NC(=O)CCSSCCNC(=O)[C@H](CCCNC(=O)c2ccc(Cl)s2)N1 [H-B2-D2/14]
4 | 110.75 | O=C1CCNC(=O)[C@H](Cc2c[nH]cn2)NC(=O)CCSSCCNC(=O)[C@H](CCCNC(=O)c2ccco2)N1 [H-B2-D2/16]
5 | 98.3606 | COc1ccc(C(=O)NCCCC[C@@H]2NC(=O)c3cccc(c3)CNC(=O)[C@H](Cc3cnc[nH]3)NC(=O)CCSSCCNC2=O)cn1 [H-B5-D1/10]
6 | 101.253 | NCCCC[C@@H]1NC(=O)c2cccc(c2)CNC(=O)[C@H](Cc2cnc[nH]2)NC(=O)CCSSCCNC1=O [H-B5-D1/-]
7 | 104.965 | CC[C@H](C)[C@@H]1NC(=O)CCSSCCNC(=O)[C@H](CCCCNC(=O)c2cc(C)on2)NC(=O)c2cccc(c2)CNC1=O [I-B5-D1/3]
8 | 106.327 | CC[C@H](C)[C@@H]1NC(=O)CCSSCCNC(=O)[C@H](CCCCNC(=O)c2c[nH]c(=O)[nH]c2=O)NC(=O)c2cccc(c2)CNC1=O [I-B5-D1/11]
9 | 103.325 | CC[C@H](C)[C@@H]1NC(=O)CCSSCCNC(=O)[C@H](CCCCN)NC(=O)c2cccc(c2)CNC1=O [I-B5-D1/-]
10 | 114.834 | CC[C@H](C)[C@@H]1NC(=O)CCSSCCNC(=O)[C@H]2CCCN(C2)C(=O)[C@H](CCCCNC(=O)c2cnccn2)NC1=O [I-D1-B4/2]
11 | 113.791 | CC[C@H](C)[C@@H]1NC(=O)CCSSCCNC(=O)[C@H]2CCCN(C2)C(=O)[C@H](CCCCNC(=O)c2c[nH]c(=O)[nH]c2=O)NC1=O [I-D1-B4/11]
12 | 114.483 | CC[C@H](C)[C@@H]1NC(=O)CCSSCCNC(=O)[C@H]2CCCN(C2)C(=O)[C@H](CCCCN)NC1=O [I-D1-B4/-]
13 | 106.945 | CC(C)CC(=O)NCCC[C@@H]1NC(=O)[C@H]2CCCN(C2)C(=O)[C@H](CC(C)C)NC(=O)CCSSCCNC1=O [L-B4-D2/8]
14 | 107.664 | COc1ccc(C(=O)NCCC[C@@H]2NC(=O)[C@H]3CCCN(C3)C(=O)[C@H](CC(C)C)NC(=O)CCSSCCNC2=O)cn1 [L-B4-D2/10]
15 | 105.489 | CC(C)C[C@@H]1NC(=O)CCSSCCNC(=O)[C@H](CCCNC(=O)Cc2c[nH]c3ccccc23)NC(=O)[C@H]2CCCN(C2)C1=O [L-B4-D2/12]
16 | 110.982 | CC(C)C[C@@H]1NC(=O)CCSSCCNC(=O)[C@H](CCCNC(=O)COc2ccccc2)NC(=O)[C@H]2CCCN(C2)C1=O [L-B4-D2/13]
17 | 97.6394 | CC(C)C[C@@H]1NC(=O)CCSSCCNC(=O)[C@H](CCCNC(=O)c2ccc(Cl)s2)NC(=O)[C@H]2CCCN(C2)C1=O [L-B4-D2/14]
18 | 109.552 | CC(C)C[C@@H]1NC(=O)CCSSCCNC(=O)[C@H](CCCN)NC(=O)[C@H]2CCCN(C2)C1=O [L-B4-D2/-]
19 | 107.636 | CC(C)C[C@@H]1NC(=O)CCSSCCNC(=O)[C@H](CCCCNC(=O)c2cnccn2)NC(=O)C2(CC2)CNC1=O [L-B6-D1/2]
20 | 98.21 | CC(C)C[C@@H]1NC(=O)CCSSCCNC(=O)[C@H](CCCCNC(=O)c2c[nH]c(=O)cn2)NC(=O)C2(CC2)CNC1=O [L-B6-D1/9]
21 | 94.7651 | CC(C)C[C@@H]1NC(=O)CCSSCCNC(=O)[C@H](CCCCNC(=O)c2ccc(Cl)s2)NC(=O)C2(CC2)CNC1=O [L-B6-D1/14]
22 | 103.319 | CC(C)C[C@@H]1NC(=O)CCSSCCNC(=O)[C@H](CCCCN)NC(=O)C2(CC2)CNC1=O [L-B6-D1/-]
23 | 109.409 | CC(C)CC(=O)NCCCC[C@@H]1NC(=O)[C@H](CC(C)C)NC(=O)CCSSCCNC(=O)[C@@H]2CCCN2C1=O [L-D1-B1/8] ([Mpa]LK(Isovaleryl)P-Cysteamide; disulfide 1-C)
24 | 112.403 | CC(C)C[C@@H]1NC(=O)CCSSCCNC(=O)[C@@H]2CCCN2C(=O)[C@H](CCCCNC(=O)COc2ccccc2)NC1=O [L-D1-B1/13] ([Mpa]LK(Phenoxyacetyl)P-Cysteamide; disulfide 1-C)
25 | 110.815 | Cc1nnsc1C(=O)NCCCC[C@@H]1NC(=O)[C@H](CC(C)C)NC(=O)CCSSCCNC(=O)[C@@H]2CCCN2C1=O [L-D1-B1/15] ([Mpa]LK(1,2,3Thiadiazole5CO(4-Me))P-Cysteamide; disulfide 1-C)

Row | percent residual thrombin activity [%] | SMILES
26 | 107.685 | NC(=O)CC[C@@H]1NC(=O)CCSSCCNC(=O)[C@H](CCCCNC(=O)c2cnccn2)NC(=O)C2(CC2)CNC1=O [Q-B6-D1/2]
27 | 108.88 | NC(=O)CC[C@@H]1NC(=O)CCSSCCNC(=O)[C@H](CCCCNC(=O)c2c[nH]c(=O)[nH]c2=O)NC(=O)C2(CC2)CNC1=O [Q-B6-D1/11]
28 | 103.639 | NC(=O)CC[C@@H]1NC(=O)CCSSCCNC(=O)[C@H](CCCCNC(=O)Cc2c[nH]c3ccccc23)NC(=O)C2(CC2)CNC1=O [Q-B6-D1/12]
29 | 99.4946 | NC(=O)CC[C@@H]1NC(=O)CCSSCCNC(=O)[C@H](CCCCNC(=O)c2ccc(Cl)s2)NC(=O)C2(CC2)CNC1=O [Q-B6-D1/14]
30 | 113.771 | NC(=O)CC[C@@H]1NC(=O)CCSSCCNC(=O)[C@H]2CCCN(C2)C(=O)[C@H](CCCCNC(=O)c2c[nH]c(=O)[nH]c2=O)NC1=O [Q-D1-B4/11]
31 | 120.491 | NC(=O)CC[C@@H]1NC(=O)CCSSCCNC(=O)[C@H]2CCCN(C2)C(=O)[C@H](CCCCNC(=O)COc2ccccc2)NC1=O [Q-D1-B4/13]
32 | 109.426 | NC(=O)CC[C@@H]1NC(=O)CCSSCCNC(=O)[C@H]2CCCN(C2)C(=O)[C@H](CCCCNC(=O)c2ccc(Cl)s2)NC1=O [Q-D1-B4/14]
33 | 105.629 | O=C1CCSSCCNC(=O)[C@H](CCCNC(=O)c2ccccc2)NC(=O)c2ccc(cc2)CNC(=O)[C@H](CO)N1 [S-B3-D2/1]
34 | 113.923 | CC(C)CC(=O)NCCC[C@@H]1NC(=O)c2ccc(cc2)CNC(=O)[C@H](CO)NC(=O)CCSSCCNC1=O [S-B3-D2/8]
35 | 111.94 | O=C(Cc1c[nH]c2ccccc12)NCCC[C@@H]1NC(=O)c2ccc(cc2)CNC(=O)[C@H](CO)NC(=O)CCSSCCNC1=O [S-B3-D2/12]
36 | 119.049 | O=C(COc1ccccc1)NCCC[C@@H]1NC(=O)c2ccc(cc2)CNC(=O)[C@H](CO)NC(=O)CCSSCCNC1=O [S-B3-D2/13]
37 | 116.562 | Cc1nnsc1C(=O)NCCC[C@@H]1NC(=O)c2ccc(cc2)CNC(=O)[C@H](CO)NC(=O)CCSSCCNC1=O [S-B3-D2/15]
38 | 114.086 | O=C1CCSSCCNC(=O)[C@H](CCCNC(=O)c2ccco2)NC(=O)c2ccc(cc2)CNC(=O)[C@H](CO)N1 [S-B3-D2/16]
39 | 119.352 | NCCC[C@@H]1NC(=O)c2ccc(cc2)CNC(=O)[C@H](CO)NC(=O)CCSSCCNC1=O [S-B3-D2/-]
40 | 117.639 | O=C1CCSSCCNC(=O)[C@H](CCCCNC(=O)c2c[nH]c(=O)[nH]c2=O)NC(=O)c2cccc(c2)CNC(=O)[C@H](CO)N1 [S-B5-D1/11]
41 | 112.778 | O=C1CCSSCCNC(=O)[C@H](CCCCNC(=O)c2ccco2)NC(=O)c2cccc(c2)CNC(=O)[C@H](CO)N1 [S-B5-D1/16]
42 | 107.119 | CC(C)[C@@H]1NC(=O)CCSSCCNC(=O)[C@@H]2CCCN2C(=O)[C@H](CCCCNC(=O)c2c[nH]c(=O)cn2)NC1=O [V-D1-B1/9] ([Mpa]VK(Pyrazinoyl(5-oxo-4H))P-Cysteamide; disulfide 1-C)
43 | 107.385 | COc1ccc(C(=O)NCCCC[C@@H]2NC(=O)[C@H](C(C)C)NC(=O)CCSSCCNC(=O)[C@@H]3CCCN3C2=O)cn1 [V-D1-B1/10] ([Mpa]VK(Nicotinoyl(6-OMe))P-Cysteamide; disulfide 1-C)
44 | 105.267 | CC(C)[C@@H]1NC(=O)CCSSCCNC(=O)[C@@H]2CCCN2C(=O)[C@H](CCCCNC(=O)Cc2c[nH]c3ccccc23)NC1=O [V-D1-B1/12] ([Mpa]VK(X3)P-Cysteamide; disulfide 1-C)
45 | 111.167 | CC(C)[C@@H]1NC(=O)CCSSCCNC(=O)[C@@H]2CCCN2C(=O)[C@H](CCCCNC(=O)COc2ccccc2)NC1=O [V-D1-B1/13] ([Mpa]VK(Phenoxyacetyl)P-Cysteamide; disulfide 1-C)
46 | 105.594 | CC(C)[C@@H]1NC(=O)CCSSCCNC(=O)[C@@H]2CCCN2C(=O)[C@H](CCCCNC(=O)c2ccc(Cl)s2)NC1=O [V-D1-B1/14] ([Mpa]VK(2Thenoyl(5-Cl))P-Cysteamide; disulfide 1-C)
47 | 114.617 | Cc1nnsc1C(=O)NCCCC[C@@H]1NC(=O)[C@H](C(C)C)NC(=O)CCSSCCNC(=O)[C@@H]2CCCN2C1=O [V-D1-B1/15] ([Mpa]VK(1,2,3Thiadiazole5CO(4-Me))P-Cysteamide; disulfide 1-C)
48 | 110.34 | CC(C)[C@@H]1NC(=O)CCSSCCNC(=O)[C@@H]2CCCN2C(=O)[C@H](CCCCNC(=O)c2ccco2)NC1=O [V-D1-B1/16] ([Mpa]VK(2Furoyl)P-Cysteamide; disulfide 1-C)
49 | 92.2757 | O=C1CCSSCCNC(=O)[C@H](CCCCNC(=O)c2ccccc2)NC(=O)C2(CC2)CNC(=O)[C@H](Cc2c[nH]c3ccccc23)N1 [W-B6-D1/1]
50 | 88.7647 | O=C(COc1ccccc1)NCCCC[C@@H]1NC(=O)C2(CC2)CNC(=O)[C@H](Cc2c[nH]c3ccccc23)NC(=O)CCSSCCNC1=O [W-B6-D1/13]
